From US8674109B2, “Pesticidal compositions” (Dow AgroSciences, LLC., priority 2009, dated 2014) come the findings set out here.

The structures appear in SMILES notation.

Holding throughout (assay type): in vivo
The test system of series [1] is corn earworm (CEW; Helicoverpa zea: Lepidoptera). The experiment in a line: Insecticidal test for corn earworm, 128-well diet tray assay. On the procedure: Insecticidal Test for Corn Earworm (Helicoverpa zea)
(§1) Bioassays on corn earworm (CEW; Helicoverpa zea: Lepidoptera) were conducted using a 128-well diet tray assay. Three to five second instar CEW larvae were placed in each well (3 mL) of the diet tray that had been previously filled with 1 mL of artificial diet to which 50 μg/cm^2 of the test compound (dissolved in 50 μL of 90:10 acetone-water mixture) had been applied (to each of eight wells) and then allowed to dry. Trays were covered with a clear self-adhesive cover, and held at 25° C., 14:10 light-dark for six days. Percent mortality was recorded for the larvae in each well; activity in the eight wells was then averaged.

For series [2], the system named is beet armyworm (BAW; Spodoptera exigua: Lepidoptera). The experiment in a line: Insecticidal test for beet armyworm, 128-well diet tray assay. The method, then: Insecticidal Test for Beet Armyworm (Spodoptera exigua)
as §1, with “beet armyworm (BAW; Spodoptera exigua:” for “corn earworm (CEW; Helicoverpa zea:”, “BAW” for “CEW”

The test system of series [3] is green peach aphid (Myzus persicae). Description: Insecticidal test for green peach aphid in foliar spray assay on cabbage seedlings. On the procedure:
Insecticidal Test for Green Peach Aphid (Myzus persicae) in Foliar Spray Assay
Cabbage seedlings grown in 3-inch pots, with 2-3 small (3-5 cm) true leaves, were used as test substrate. The seedlings were infested with 20-50 green peach aphids (wingless adult and nymph) one day prior to chemical application. Four pots with individual seedlings were used for each treatment. Compounds (2 mg) were dissolved in 2 mL of acetone/methanol (1:1) solvent, forming stock solutions of 1000 ppm. The stock solutions were diluted 5× with 0.025% Tween 20 in H2O to obtain the solution at 200 ppm. A hand-held Devilbiss sprayer was used for spraying a solution to both sides of cabbage leaves until runoff. Reference plants (solvent check) were sprayed with the diluent only. Treated plants were held in a holding room for three days at approximately 25° C. and 40% relative humidity (RH) prior to grading. Evaluation was conducted by counting the number of live aphids per plant under a microscope. Insecticidal activity was measured by using Abbott's correction formula are presented in Table 2: Corrected % Control=100*(X−Y)/X
where • X=No. of live aphids on solvent check plants • Y=No. of live aphids on treated plants

On to `CCC(CC)OC(=O)Nc1ccc(-c2ncn(-c3ccc(OC(F)(F)F)cc3)n2)cc1` [Compound 113], for which, in series [1], the “% Mortality CEW 50 μg/cm^2” value was “A (50-100)”. For the same compound, the “% Mortality BAW 50 μg/cm^2” value in series [2] was “A (50-100)”. Besides, in series [3], the “% Mortality GPA 200 ppm” value is reported as “B (Less than 80)”.
As for `CCC(OC(=O)Nc1ccc(-c2ncn(-c3ccc(OC(F)(F)C(F)(F)F)cc3)n2)cc1)c1ccccc1` (stereo not drawn) [Compound 34], the “% Mortality CEW 50 μg/cm^2” value in series [1] is “A (50-100)”. The “% Mortality BAW 50 μg/cm^2” value in series [2] was “A (50-100)”. Besides, in series [3], the “% Mortality GPA 200 ppm” value is reported as “B (Less than 80)”.
With `COC(=O)Nc1ccc(-c2ncn(-c3ccc(OC(F)(F)F)cc3)n2)cc1` [Compound 104], the “% Mortality CEW 50 μg/cm^2” value in series [1] is recorded as “A (50-100)”. In addition, in series [2], the “% Mortality BAW 50 μg/cm^2” value was “A (50-100)”. For the same compound, the “% Mortality GPA 200 ppm” value in series [3] is recorded as “B (Less than 80)”.
With `O=C(Nc1ccc(-c2ncn(-c3ccc(OC(F)(F)F)cc3)n2)cc1)OCc1ccc(C(F)(F)F)cc1` [Compound 50], the “% Mortality CEW 50 μg/cm^2” value in series [1] is on record as “B (Less than 50)”. Moreover, the “% Mortality BAW 50 μg/cm^2” value in series [2] was “B (Less than 50)”. Also, in series [3], the “% Mortality GPA 200 ppm” value is on record as “B (Less than 80)”.
In the case of `CCC(OC(=O)Nc1ccc(-c2ncn(-c3ccc(OC(F)(F)F)cc3)n2)cc1)c1cccc(Cl)c1` (stereo not drawn) [Compound 65], the “% Mortality CEW 50 μg/cm^2” value in series [1] is on record as “A (50-100)”. Further, the “% Mortality BAW 50 μg/cm^2” value in series [2] is reported as “A (50-100)”. Besides, the “% Mortality GPA 200 ppm” value in series [3] was “B (Less than 80)”.
For `CCOc1cnc(C(C)(C)OC(=O)Nc2ccc(-c3ncn(-c4ccc(OC(F)(F)F)cc4)n3)cc2)nc1` [Compound 3, {4-[1-(4-trifluoromethoxyphenyl)-1H-[1,2,4]triazol-3-yl]-phenyl}-carbamic acid 1-(5-ethoxy-pyrimidin-2-yl)-1-methyl-ethyl ester], the “% Mortality CEW 50 μg/cm^2” value in series [1] was “B (Less than 50)”. For the same compound, in series [2], the “% Mortality BAW 50 μg/cm^2” value was “A (50-100)”. Besides, the “% Mortality GPA 200 ppm” value in series [3] is recorded as “B (Less than 80)”.
For `N#CC(OC(=O)Nc1ccc(-c2ncn(-c3ccc(OC(F)(F)F)cc3)n2)cc1)c1ccccc1` (stereo not drawn) [Compound 112], in that order: “A (50-100)”, “A (50-100)” and “B (Less than 80)”.
For `O=C(Nc1ccc(-c2ncn(-c3ccc(OC(F)(F)F)cc3)n2)cc1)OCc1c(Cl)cccc1Cl` [Compound 111], in that order: “A (50-100)”, “B (Less than 50)” and “B (Less than 80)”.
Consider `Cc1ccc(C(C)OC(=O)Nc2ccc(-c3ncn(-c4ccc(OC(F)(F)F)cc4)n3)cc2)cn1` (stereo not drawn) [Compound 47], for which the “% Mortality CEW 50 μg/cm^2” value in series [1] is given as “A (50-100)”. In addition, the “% Mortality BAW 50 μg/cm^2” value in series [2] is on record as “A (50-100)”. Moreover, the “% Mortality GPA 200 ppm” value in series [3] is on record as “B (Less than 80)”.
Consider `CC(C)OC(=O)Nc1ccc(-c2ncn(-c3ccc(OC(F)(F)F)cc3)n2)cc1` [Compound 87], for which the “% Mortality CEW 50 μg/cm^2” value in series [1] is recorded as “B (Less than 50)”. Also, the “% Mortality BAW 50 μg/cm^2” value in series [2] was “A (50-100)”. For the same compound, the “% Mortality GPA 200 ppm” value in series [3] is on record as “B (Less than 80)”.
The matching figures for `CC(OC(=O)Nc1ccc(-c2ncn(-c3ccc(OC(F)(F)F)cc3)n2)cc1)c1cccs1` (stereo not drawn) [Compound 76]: “A (50-100)”, “A (50-100)” and “B (Less than 80)”.
The matching figures for `C#CC(OC(=O)Nc1ccc(-c2ncn(-c3ccc(OC(F)(F)F)cc3)n2)cc1)c1ccccc1` (stereo not drawn) [Compound 82]: “A (50-100)”, “A (50-100)” and “B (Less than 80)”.
The matching figures for `Cc1ccc2c(c1)CC(C)C(OC(=O)Nc1ccc(-c3ncn(-c4ccc(OC(F)(F)F)cc4)n3)cc1)O2` (stereo not drawn) [Compound 94]: “A (50-100)”, “A (50-100)” and “B (Less than 80)”.
Turning to `CC(OC(=O)Nc1ccc(-c2ncn(-c3ccc(OC(F)(F)F)cc3)n2)cc1)c1ccc(OC(F)(F)F)cc1` (stereo not drawn) [Compound 64], the “% Mortality CEW 50 μg/cm^2” value in series [1] was “A (50-100)”. For the same compound, the “% Mortality BAW 50 μg/cm^2” value in series [2] is “A (50-100)”. Further, the “% Mortality GPA 200 ppm” value in series [3] is reported as “B (Less than 80)”.
With `CC1(OC(=O)Nc2ccc(-c3ncn(-c4ccc(OC(F)(F)F)cc4)n3)cc2)Cc2ccccc2C1` [Compound 108], in series [1], the “% Mortality CEW 50 μg/cm^2” value was “B (Less than 50)”. Further, in series [2], the “% Mortality BAW 50 μg/cm^2” value is on record as “B (Less than 50)”. Besides, the “% Mortality GPA 200 ppm” value in series [3] is “B (Less than 80)”.
As to `CN(C)CC#CC(C)(C)OC(=O)Nc1ccc(-c2ncn(-c3ccc(OC(F)(F)F)cc3)n2)cc1` [Compound 99], the “% Mortality CEW 50 μg/cm^2” value in series [1] is listed as “B (Less than 50)”. Further, the “% Mortality BAW 50 μg/cm^2” value in series [2] was “B (Less than 50)”. In series [3], the “% Mortality GPA 200 ppm” value was “B (Less than 80)”.
Consider `COc1ccc(C(C)OC(=O)Nc2ccc(-c3ncn(-c4ccc(OC(F)(F)F)cc4)n3)cc2)cn1` (stereo not drawn) [Compound 55], for which the “% Mortality CEW 50 μg/cm^2” value in series [1] is “A (50-100)”. In addition, the “% Mortality BAW 50 μg/cm^2” value in series [2] is “A (50-100)”. The “% Mortality GPA 200 ppm” value in series [3] is “B (Less than 80)”.
With `CCOC(=O)C#CC(C)(C)OC(=O)Nc1ccc(-c2ncn(-c3ccc(OC(F)(F)F)cc3)n2)cc1` [Compound 23, 4-methyl-4-{4-[1-(4-trifluoromethoxyphenyl)-1H-[1,2,4]triazol-3-yl]-phenylcarbamoyloxy}-pent-2-ynoic acid ethyl ester], the “% Mortality CEW 50 μg/cm^2” value in series [1] is on record as “B (Less than 50)”. Besides, the “% Mortality BAW 50 μg/cm^2” value in series [2] is listed as “B (Less than 50)”. Besides, the “% Mortality GPA 200 ppm” value in series [3] is given as “B (Less than 80)”.
Regarding `CC(OC(=O)Nc1ccc(-c2ncn(-c3ccc(OC(F)(F)F)cc3)n2)cc1)c1ccncc1` (stereo not drawn) [Compound 48], the “% Mortality CEW 50 μg/cm^2” value in series [1] is on record as “A (50-100)”. In addition, the “% Mortality BAW 50 μg/cm^2” value in series [2] is “A (50-100)”. Moreover, in series [3], the “% Mortality GPA 200 ppm” value is reported as “B (Less than 80)”.
With `CN(C(=O)Oc1ccc([N+](=O)[O-])cc1)c1ccc(-c2ncn(-c3ccc(OC(F)(F)F)cc3)n2)cc1` [Compound 136, methyl-{4-[1-(4-trifluoromethoxyphenyl)-1H-[1,2,4]triazol-3-yl]-phenyl}-carbamic acid 4-nitrophenyl ester], the “% Mortality CEW 50 μg/cm^2” value in series [1] is given as “B (Less than 50)”. In addition, the “% Mortality BAW 50 μg/cm^2” value in series [2] is “B (Less than 50)”. In series [3], the “% Mortality GPA 200 ppm” value is listed as “B (Less than 80)”.
With `CC(Cc1ccccc1)OC(=O)Nc1ccc(-c2ncn(-c3ccc(OC(F)(F)F)cc3)n2)cc1` (stereo not drawn) [Compound 107], in series [1], the “% Mortality CEW 50 μg/cm^2” value is on record as “A (50-100)”. Further, the “% Mortality BAW 50 μg/cm^2” value in series [2] was “A (50-100)”. For the same compound, in series [3], the “% Mortality GPA 200 ppm” value was “B (Less than 80)”.
For `CC(OC(=O)Nc1ccc(-c2ncn(-c3ccc(OC(F)(F)F)cc3)n2)cc1)c1ccccc1` (stereo not drawn) [Compound 59], the “% Mortality CEW 50 μg/cm^2” value in series [1] is given as “A (50-100)”. For the same compound, the “% Mortality BAW 50 μg/cm^2” value in series [2] is given as “A (50-100)”. For the same compound, the “% Mortality GPA 200 ppm” value in series [3] was “B (Less than 80)”.
Consider `CC(OC(=O)Nc1ccc(-c2ncn(-c3ccc(OC(F)(F)F)cc3)n2)cc1)c1cnc(C(F)(F)F)nc1` (stereo not drawn) [Compound 57], for which, in series [1], the “% Mortality CEW 50 μg/cm^2” value is “A (50-100)”. In series [2], the “% Mortality BAW 50 μg/cm^2” value was “A (50-100)”. The “% Mortality GPA 200 ppm” value in series [3] is reported as “B (Less than 80)”.
For the compound `CC(OC(=O)Nc1ccc(-c2ncn(-c3ccc(OC(F)(F)F)cc3)n2)cc1)c1ccc(Br)cc1` (stereo not drawn) [Compound 39], the “% Mortality CEW 50 μg/cm^2” value in series [1] is reported as “A (50-100)”. In addition, the “% Mortality BAW 50 μg/cm^2” value in series [2] is “A (50-100)”. Besides, the “% Mortality GPA 200 ppm” value in series [3] is recorded as “B (Less than 80)”.
On to `CC(OC(=O)Nc1ccc(-c2ncn(-c3ccc(OC(F)(F)F)cc3)n2)cc1)c1ccc(C(F)(F)F)[n+]([O-])c1` (stereo not drawn) [Compound 51], for which the “% Mortality CEW 50 μg/cm^2” value in series [1] is “A (50-100)”. For the same compound, in series [2], the “% Mortality BAW 50 μg/cm^2” value was “A (50-100)”. Moreover, the “% Mortality GPA 200 ppm” value in series [3] is given as “B (Less than 80)”.
Regarding `CC(OC(=O)Nc1ccc(-c2ncn(-c3ccc(OC(F)(F)F)cc3)n2)cc1)c1cccc(C(F)(F)F)c1` (stereo not drawn) [Compound 68], in series [1], the “% Mortality CEW 50 μg/cm^2” value was “A (50-100)”. Moreover, in series [2], the “% Mortality BAW 50 μg/cm^2” value is reported as “A (50-100)”. Moreover, the “% Mortality GPA 200 ppm” value in series [3] was “B (Less than 80)”.
For the compound `O=C(Nc1ccc(-c2ncn(-c3ccc(OC(F)(F)F)cc3)n2)cc1)OC(c1ccccc1)c1ccc(C(F)(F)F)cc1` (stereo not drawn) [Compound 43], the “% Mortality CEW 50 μg/cm^2” value in series [1] is recorded as “A (50-100)”. In addition, the “% Mortality BAW 50 μg/cm^2” value in series [2] is on record as “A (50-100)”. For the same compound, the “% Mortality GPA 200 ppm” value in series [3] was “B (Less than 80)”.
With `CCOC(=O)Nc1ccc(-c2ncn(-c3ccc(OC(F)(F)F)cc3)n2)cc1` [Compound 98], in series [1], the “% Mortality CEW 50 μg/cm^2” value is “A (50-100)”. The “% Mortality BAW 50 μg/cm^2” value in series [2] is listed as “A (50-100)”. The “% Mortality GPA 200 ppm” value in series [3] was “B (Less than 80)”.
